Reference: patent US8410153B2, “Naphthalene isoxazoline invertebrate pest control agents” (E.I. du Pont de Nemours and Company, priority 2007, dated 2013)

Key:
Format in all cases: in vivo
[1] = test system: diamondback moth (Plutella xylostella); assay: Test A: control of diamondback moth on radish plant, foliar spray; conditions: sprayed at 50 ppm, held 6 days
Source text: For evaluating control of diamondback moth (Plutella xylostella) the test unit consisted of a small open container with a 12-14-day-old radish plant inside. This was pre-infested with about 50 neonate larvae that were dispensed into the test unit via corncob grits using a bazooka inoculator. The larvae moved onto the test plant after being dispensed into the test unit.
(§1) Test compounds were formulated using a solution containing 10% acetone, 90% water and 300 ppm X-77™ Spreader Lo-Foam Formula non-ionic surfactant containing alkylarylpolyoxyethylene, free fatty acids, glycols and isopropanol (Loveland Industries, Inc. Greeley, Colo., USA). The formulated compounds were applied in 1 mL of liquid through a SUJ2 atomizer nozzle with ⅛ JJ custom body (Spraying Systems Co. Wheaton, Ill., USA) positioned 1.27 cm (0.5 inches) above the top of each test unit. All experimental compounds in these tests were sprayed at 50 ppm, and the test was replicated three times. After spraying of the formulated test compound, each test unit was allowed to dry for 1 h and then a black, screened cap was placed on top. The test units were held for 6 days in a growth chamber at 25° C. and 70% relative humidity. Plant feeding damage was then visually assessed based on foliage consumed, and a pest mortality rating was also counted and calculated for each test unit.

[2] = test system: western flower thrips (Frankliniella occidentalis); assay: Test E: control of western flower thrips on Soleil bean plant, contact and/or systemic; conditions: held 6 days
Method: as §1
For evaluating control of the western flower thrips (Frankliniella occidentalis) through contact and/or systemic means, the test unit consisted of a small open container with a 5-7-day-old Soleil Bean plant inside. Test compounds were formulated and sprayed as described for Test A. All experimental compounds in these tests were sprayed at 250 or 50 ppm as noted, and the test was replicated three times. After spraying, the test units were allowed to dry for 1 h, 22-27 adult thrips were added to each unit and then a black, screened cap was placed on top. The test units were held for 6 days at 25° C. and 45-55% relative humidity. A mortality rating was assessed along with a plant damage rating for each test unit.

[3] = test system: fall armyworm (Spodoptera frugiperda); assay: Test B: control of fall armyworm on corn (maize) plant, foliar spray; conditions: sprayed at 50 ppm
Method: as §1
For evaluating control of fall armyworm (Spodoptera frugiperda) the test unit consisted of a small open container with a 4-5-day-old corn (maize) plant inside. This was pre-infested (using a core sampler) with 10-15 1-day-old larvae on a piece of insect diet. Test compounds were formulated and sprayed at 50 ppm as described for Test A and replicated three times. After spraying, the test units were maintained in a growth chamber and then the control efficacy was rated for each test unit as described for Test A.

SMILES | levels of control efficacy (20% or less feeding damage or 80% or more mortality) [1] | levels of control efficacy (20% or less feeding damage or 80% or more mortality) ([2]; sprayed at 50 ppm) | levels of control efficacy (20% or less feeding damage or 80% or more mortality) ([2]; sprayed at 250 ppm) | levels of control efficacy (20% or less feeding damage or 80% or more mortality) [3]
CC(C)C(NC(=O)c1ccc(C2=NOC(c3cc(Cl)cc(Cl)c3)(C(F)(F)F)C2)c2ccccc12)C(=O)NCC(F)(F)F (mixture of isomers) [Compound 2] | very good to excellent |  |  | 
CCCNC(=O)C(C)NC(=O)c1ccc(C2=NOC(c3cc(Cl)cc(C(F)(F)F)c3)(C(F)(F)F)C2)c2ccccc12 (mixture of isomers) [Compound 108] | very good to excellent | very good to excellent | very good to excellent | 
CC(C)NC(=O)C(C)NC(=O)c1ccc(C2=NOC(c3cc(Cl)cc(C(F)(F)F)c3)(C(F)(F)F)C2)c2ccccc12 (mixture of isomers) [Compound 128] |  |  |  | very good to excellent
CC(C)NC(=O)C(C)NC(=O)c1ccc(C2=NOC(c3cc(Cl)cc(C(F)(F)F)c3)(C(F)(F)F)C2)c2ccccc12 (mixture of isomers) [Compound 107] | very good to excellent | very good to excellent | very good to excellent | 
CC(O)CCNC(=O)c1ccc(C2=NOC(c3cccc(C(F)(F)F)c3)(C(F)(F)F)C2)c2ccccc12 (mixture of isomers) [Compound 44] | very good to excellent | very good to excellent | very good to excellent | 
CCCNC(=O)C(C)NC(=O)c1ccc(C2=NOC(c3cc(Cl)cc(C(F)(F)F)c3)(C(F)(F)F)C2)c2ccccc12 (mixture of isomers) [Compound 129] |  |  |  | very good to excellent
CC(C)(CO)NC(=O)c1ccc(C2=NOC(c3cc(Cl)cc(Cl)c3)(C(F)(F)F)C2)c2ccccc12 (racemic) [Compound 32] | very good to excellent | very good to excellent | very good to excellent | 
CCCNC(=O)C(C)NC(=O)c1ccc(C2=NOC(c3cc(C(F)(F)F)cc(C(F)(F)F)c3)(C(F)(F)F)C2)c2ccccc12 (mixture of isomers) [Compound 84] | very good to excellent | very good to excellent | very good to excellent | 
O=C(NCCCO)c1ccc(C2=NOC(c3cccc(C(F)(F)F)c3)(C(F)(F)F)C2)c2ccccc12 (racemic) [Compound 42] | very good to excellent | very good to excellent | very good to excellent | 
CNC(=O)C(C)NC(=O)c1ccc(C2=NOC(c3cc(C(F)(F)F)cc(C(F)(F)F)c3)(C(F)(F)F)C2)c2ccccc12 (mixture of isomers) [Compound 95] | very good to excellent |  |  | 
CC(C)(CO)CNC(=O)c1ccc(C2=NOC(c3cccc(C(F)(F)F)c3)(C(F)(F)F)C2)c2ccccc12 (stereo not drawn) [Compound 61] | very good to excellent |  |  | 
CS(=O)(=O)CCNC(=O)c1ccc(C2=NOC(c3cc(F)cc(F)c3)(C(F)(F)F)C2)c2ccccc12 (stereo not drawn) [Compound 80] | very good to excellent |  | very good to excellent | 
CC(C)NC(=O)CNC(=O)c1ccc(C2=NOC(c3cc(F)cc(F)c3)(C(F)(F)F)C2)c2ccccc12 (stereo not drawn) [Compound 75] | very good to excellent |  |  | 
CC(C)(C)SCCNC(=O)c1ccc(C2=NOC(c3cccc(C(F)(F)F)c3)(C(F)(F)F)C2)c2ccccc12 (racemic) [Compound 57] | very good to excellent |  |  | 
CCNC(=O)C(C)NC(=O)c1ccc(C2=NOC(c3cc(Cl)cc(C(F)(F)F)c3)(C(F)(F)F)C2)c2ccccc12 (mixture of isomers) [Compound 110] | very good to excellent | very good to excellent | very good to excellent | 
CC(NC(=O)CNC(=O)c1ccc(C2=NOC(c3cc(C(F)(F)F)cc(C(F)(F)F)c3)(C(F)(F)F)C2)c2ccccc12)C(F)(F)F (mixture of isomers) [Compound 104] | very good to excellent |  |  | 
CC(C)NC(=O)CNC(=O)c1ccc(C2=NOC(c3cccc(F)c3)(C(F)(F)F)C2)c2ccccc12 (stereo not drawn) [Compound 76] | very good to excellent |  |  | 
CC(NC(=O)c1ccc(C2=NOC(c3cc(Cl)cc(C(F)(F)F)c3)(C(F)(F)F)C2)c2ccccc12)C(=O)NCC(F)(F)F (mixture of isomers) [Compound 106] | very good to excellent | very good to excellent | very good to excellent | 
O=C(CCNC(=O)c1ccc(C2=NOC(c3cc(Cl)cc(Cl)c3)(C(F)(F)F)C2)c2ccccc12)NCC(F)(F)F (stereo not drawn) [Compound 9] | very good to excellent |  |  | 
O=C(CNC(=O)c1ccc(C2=NOC(c3cc(F)cc(F)c3)(C(F)(F)F)C2)c2ccccc12)NCC(F)(F)F (stereo not drawn) [Compound 73] | very good to excellent |  | very good to excellent | 
CC(NC(=O)c1ccc(C2=NOC(c3cc(C(F)(F)F)cc(C(F)(F)F)c3)(C(F)(F)F)C2)c2ccccc12)C(=O)NCC(C)(C)C (mixture of isomers) [Compound 97] |  | very good to excellent |  | 
CSCCNC(=O)c1ccc(C2=NOC(c3cccc(F)c3)(C(F)(F)F)C2)c2ccccc12 (stereo not drawn) [Compound 78] | very good to excellent |  |  | 
CC(NC(=O)c1ccc(C2=NOC(c3cc(Cl)cc(C(F)(F)F)c3)(C(F)(F)F)C2)c2ccccc12)C(=O)NCC(C)(C)C (mixture of isomers) [Compound 112] | very good to excellent |  | very good to excellent | 
CC(NC(=O)c1ccc(C2=NOC(c3cc(Cl)cc(C(F)(F)F)c3)(C(F)(F)F)C2)c2ccccc12)C(=O)NCC(C)(C)C (mixture of isomers) [Compound 131] | very good to excellent |  | very good to excellent | 
O=C(CNC(=O)c1ccc(C2=NOC(c3cccc(F)c3)(C(F)(F)F)C2)c2ccccc12)NCC(F)(F)F (stereo not drawn) [Compound 74] | very good to excellent |  |  | 
CC(C)CNC(=O)C(C)NC(=O)c1ccc(C2=NOC(c3cc(Cl)cc(C(F)(F)F)c3)(C(F)(F)F)C2)c2ccccc12 (mixture of isomers) [Compound 111] | very good to excellent | very good to excellent | very good to excellent | 
CSCCNC(=O)c1ccc(C2=NOC(c3cc(F)cc(F)c3)(C(F)(F)F)C2)c2ccccc12 (stereo not drawn) [Compound 77] | very good to excellent |  | very good to excellent | 
CNC(=O)C(C)NC(=O)c1ccc(C2=NOC(c3cc(Cl)cc(C(F)(F)F)c3)(C(F)(F)F)C2)c2ccccc12 (mixture of isomers) [Compound 109] | very good to excellent | very good to excellent | very good to excellent | 
CC(NC(=O)c1ccc(C2=NOC(c3cc(C(F)(F)F)cc(C(F)(F)F)c3)(C(F)(F)F)C2)c2ccccc12)C(=O)NCC(F)(F)F (mixture of isomers) [Compound 94] | very good to excellent |  |  | 
